US6573293B2, “Pyrrole substituted 2-indolinone protein kinase inhibitors” (Sugen, Inc., priority 2000, dated 2003)

Columns and labels:
[1] = molecular target: T1, HER-2 kinase (Homo sapiens, UniProt P04626); test: Cellular HER-2 kinase assay; assay type: cell-based; conditions: read-out: Her2 Kinase IC50
T1 construct: Use EGFr/HER-2 chimera/3T3-C7 cell line for this assay; It is expressed in mouse NIH 3T3 clone C7 cells; P00533 (Epidermal growth factor receptor)

[2] = molecular target: T2, EGFR (Homo sapiens, UniProt P00533); test: EGFR bioassay (bio EGF); assay type: biochemical
T2 construct: A431 cell lysate (SUGEN, Inc.); host or cells: A431

[3] = molecular target: T3, PDGFR-β (Homo sapiens, UniProt P09619); test: PDGFR bioassay (bio PDGF); assay type: biochemical
T3 construct: host or cells: NIH 3T3

[4] = molecular target: T4, GST-Flk1 (Mus musculus, UniProt P35918); test: GST-FLK-1 bioassay (bio flkGST); assay type: biochemical
T4 construct: GST-Flk1cd purified from sf9 recombinant baculovirus transformation; host or cells: Sf9 (baculovirus)
T4 sequence (P35918 784-1345 limits assumed): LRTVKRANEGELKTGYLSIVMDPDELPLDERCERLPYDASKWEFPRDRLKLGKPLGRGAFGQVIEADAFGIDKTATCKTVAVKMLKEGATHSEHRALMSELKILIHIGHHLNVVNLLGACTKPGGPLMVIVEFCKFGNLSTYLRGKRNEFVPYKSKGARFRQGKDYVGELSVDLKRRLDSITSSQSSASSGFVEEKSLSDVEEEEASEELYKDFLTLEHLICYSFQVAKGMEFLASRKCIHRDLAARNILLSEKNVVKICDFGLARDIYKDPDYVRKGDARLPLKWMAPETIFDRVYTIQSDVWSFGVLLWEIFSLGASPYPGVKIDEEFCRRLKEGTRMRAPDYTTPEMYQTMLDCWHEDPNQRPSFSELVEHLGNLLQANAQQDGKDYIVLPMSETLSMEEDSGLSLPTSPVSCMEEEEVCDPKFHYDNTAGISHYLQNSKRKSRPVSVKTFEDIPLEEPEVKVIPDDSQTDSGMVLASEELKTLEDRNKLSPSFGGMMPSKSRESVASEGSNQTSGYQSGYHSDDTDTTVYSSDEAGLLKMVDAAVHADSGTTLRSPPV

T1 sequence (P04626 720-987 limits assumed): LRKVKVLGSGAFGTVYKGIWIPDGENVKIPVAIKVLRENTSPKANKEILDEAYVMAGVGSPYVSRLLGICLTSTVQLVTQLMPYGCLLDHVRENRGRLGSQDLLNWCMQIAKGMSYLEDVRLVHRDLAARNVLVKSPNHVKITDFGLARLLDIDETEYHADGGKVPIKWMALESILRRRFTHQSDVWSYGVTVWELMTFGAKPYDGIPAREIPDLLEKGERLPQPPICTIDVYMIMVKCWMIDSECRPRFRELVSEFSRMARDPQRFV
T3 sequence (P09619 33-1106): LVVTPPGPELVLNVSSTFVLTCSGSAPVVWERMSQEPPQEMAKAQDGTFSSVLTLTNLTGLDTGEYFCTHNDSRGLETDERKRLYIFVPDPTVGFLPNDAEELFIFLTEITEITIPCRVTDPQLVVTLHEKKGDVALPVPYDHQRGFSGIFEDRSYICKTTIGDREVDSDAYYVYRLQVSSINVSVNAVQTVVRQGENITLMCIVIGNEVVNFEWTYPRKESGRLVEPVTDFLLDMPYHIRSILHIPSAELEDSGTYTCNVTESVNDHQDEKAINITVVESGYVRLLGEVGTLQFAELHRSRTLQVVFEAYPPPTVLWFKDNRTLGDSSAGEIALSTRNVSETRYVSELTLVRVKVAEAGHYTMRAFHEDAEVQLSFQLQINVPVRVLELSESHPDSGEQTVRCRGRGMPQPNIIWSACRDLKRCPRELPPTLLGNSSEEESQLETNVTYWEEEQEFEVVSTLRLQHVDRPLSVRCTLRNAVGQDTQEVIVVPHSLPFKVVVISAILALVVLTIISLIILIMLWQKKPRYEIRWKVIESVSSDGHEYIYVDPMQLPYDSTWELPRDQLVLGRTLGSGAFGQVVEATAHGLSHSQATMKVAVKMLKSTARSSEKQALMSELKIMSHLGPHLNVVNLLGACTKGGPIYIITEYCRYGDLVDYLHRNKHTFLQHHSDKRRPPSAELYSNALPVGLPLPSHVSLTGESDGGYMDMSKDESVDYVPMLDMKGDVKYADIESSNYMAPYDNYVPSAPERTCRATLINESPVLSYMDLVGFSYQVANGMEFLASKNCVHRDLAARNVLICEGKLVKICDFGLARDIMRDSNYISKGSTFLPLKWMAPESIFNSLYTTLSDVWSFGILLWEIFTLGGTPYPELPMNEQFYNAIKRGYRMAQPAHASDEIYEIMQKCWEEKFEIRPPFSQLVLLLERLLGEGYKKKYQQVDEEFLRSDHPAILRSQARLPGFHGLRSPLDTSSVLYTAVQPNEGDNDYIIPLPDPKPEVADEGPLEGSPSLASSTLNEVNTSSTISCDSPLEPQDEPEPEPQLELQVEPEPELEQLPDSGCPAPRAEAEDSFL
T2 sequence (P00533 25-1210): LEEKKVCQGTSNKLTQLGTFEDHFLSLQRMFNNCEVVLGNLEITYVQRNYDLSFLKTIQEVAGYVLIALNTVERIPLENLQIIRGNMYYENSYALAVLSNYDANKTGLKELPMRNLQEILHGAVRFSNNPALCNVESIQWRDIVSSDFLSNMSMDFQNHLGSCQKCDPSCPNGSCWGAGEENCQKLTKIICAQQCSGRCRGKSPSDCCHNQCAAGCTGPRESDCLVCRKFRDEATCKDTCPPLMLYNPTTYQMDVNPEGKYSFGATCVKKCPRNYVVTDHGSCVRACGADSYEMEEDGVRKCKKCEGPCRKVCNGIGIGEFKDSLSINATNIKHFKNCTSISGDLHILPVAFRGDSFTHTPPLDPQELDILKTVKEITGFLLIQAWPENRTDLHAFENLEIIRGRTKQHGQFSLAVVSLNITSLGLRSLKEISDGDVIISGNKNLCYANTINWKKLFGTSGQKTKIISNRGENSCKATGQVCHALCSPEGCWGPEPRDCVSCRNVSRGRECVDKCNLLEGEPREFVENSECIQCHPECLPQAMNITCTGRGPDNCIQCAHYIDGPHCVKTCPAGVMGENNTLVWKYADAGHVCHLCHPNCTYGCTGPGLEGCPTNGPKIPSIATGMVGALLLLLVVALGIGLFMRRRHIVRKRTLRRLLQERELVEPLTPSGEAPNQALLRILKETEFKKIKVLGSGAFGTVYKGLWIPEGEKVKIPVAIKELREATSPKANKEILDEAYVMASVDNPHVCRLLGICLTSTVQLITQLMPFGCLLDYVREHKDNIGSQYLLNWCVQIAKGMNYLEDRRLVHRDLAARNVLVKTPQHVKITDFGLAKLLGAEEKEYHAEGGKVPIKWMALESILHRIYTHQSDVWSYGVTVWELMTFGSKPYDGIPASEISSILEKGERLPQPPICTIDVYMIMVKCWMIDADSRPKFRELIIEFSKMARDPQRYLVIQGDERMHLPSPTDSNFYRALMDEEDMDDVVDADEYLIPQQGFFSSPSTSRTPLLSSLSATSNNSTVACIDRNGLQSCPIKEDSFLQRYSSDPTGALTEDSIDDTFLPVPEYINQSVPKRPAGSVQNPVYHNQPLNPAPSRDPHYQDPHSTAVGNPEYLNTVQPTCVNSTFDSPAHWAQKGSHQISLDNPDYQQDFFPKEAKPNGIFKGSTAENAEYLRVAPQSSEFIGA

IC50 [1] | IC50 [2] | IC50 [3] | IC50 [4] | Compound
27.7 µM | > 100 µM | 21.5 µM | > 20 µM | CCN(CC)CCCNC(=O)c1[nH]c(/C=C2\C(=O)Nc3ccccc32)cc1C [Example 12, 3-Methyl-5-(2-oxo-1,2-dihydroindol-3-ylidenemethyl)-1H-pyrrole-2-carboxylic acid (3-diethylaminopropyl)amide]
2.66 µM | 8.17 µM | 81.9 µM | > 20 µM | CCN(CC)CCCNC(=O)c1[nH]c(/C=C2\C(=O)Nc3ccc(Br)cc32)cc1C [Example 13, 5-(5-Bromo-2-oxo-1,2-dihydroindol-3-ylidenemethyl)-3-methyl-1H-pyrrole-2-carboxylic acid (3-diethylaminopropyl)amide]
66 µM | > 100 µM | 42.4 µM | 13 µM | CCN(CC)CCCNC(=O)c1[nH]c(/C=C2\C(=O)Nc3cc(-c4ccccc4)ccc32)cc1C [Example 14, 3-Methyl-5-(2-oxo-6-phenyl-1,2-dihydroindol-3-ylidenemethyl)-1H-pyrrole-2-carboxylic acid (3-diethylaminopropyl)amide]
98.6 µM | – | – | – | CCN(CC)CCCNC(=O)c1[nH]c(/C=C2\C(=O)Nc3ccc(OC)cc32)cc1C [Example 15, 5-(5-Methoxy-2-oxo-1,2-dihydroindol-3-ylidenemethyl)-3-methyl-1H-pyrrole-2-carboxylic acid (3-diethylaminopropyl)amide]
23.3 µM | – | 98.1 µM | – | CCN(CC)CCCNC(=O)c1[nH]c(/C=C2\C(=O)Nc3cc(OC)ccc32)cc1C [Example 16, 5-(6-Methoxy-2-oxo-1,2-dihydroindol-3-ylidenemethyl)-3-methyl-1H-pyrrole-2-carboxylic acid (3-diethylaminopropyl)amide]
27.7 µM | 40.3 µM | > 100 µM | 7.18 µM | CCN(CC)CCCNC(=O)c1[nH]c(/C=C2\C(=O)Nc3ccc(Br)cc32)c(C(=O)c2ccccc2)c1C [Example 21, 4-Benzoyl-5-(5-bromo-2-oxo-1,2-dihydroindol-3-ylidenemethyl)-3-methyl-1H-pyrrole-2-carboxylic acid (3-diethylaminopropyl)amide]
87.7 µM | – | – | – | Cc1c(C(=O)NCCCN2CCOCC2)[nH]c(/C=C2\C(=O)Nc3ccc(Br)cc32)c1C(=O)c1ccccc1 [Example 22, 4-Benzoyl-5-(5-bromo-2-oxo-1,2-dihydroindol-3-ylidenemethyl)-3-methyl-1H-pyrrole-2-carboxylic acid (3-morpholin-4-ylpropyl)amide]
4.05 µM | 36.6 µM | > 100 µM | > 20 µM | Cc1c(C(=O)NCCCN2CCCC2)[nH]c(/C=C2\C(=O)Nc3ccccc32)c1C(=O)c1ccccc1 [Example 23, 4-Benzoyl-3-methyl-5-(2-oxo-1,2-dihydroindol-3-ylidenemethyl)-1H-pyrrole-2-carboxylic acid (3-pyrrolidin-1-ylpropyl)amide]
5.31 µM | 16.8 µM | – | – | Cc1c(C(=O)NCCCN2CCCC2)[nH]c(/C=C2\C(=O)Nc3ccc(Br)cc32)c1C(=O)c1ccccc1 [Example 24, 4-Benzoyl-5-(5-bromo-2-oxo-1,2-dihydroindol-3-ylidenemethyl)-3-methyl-1H-pyrrole-2-carboxylic acid (3-pyrrolidin-1-ylpropyl)amide]
7.9 µM | 23.5 µM | – | 12.6 µM | Cc1c(C(=O)NCCCN2CCCC2)[nH]c(/C=C2\C(=O)Nc3cc(-c4ccccc4)ccc32)c1C(=O)c1ccccc1 [Example 25, 4-Benzoyl-3-methyl-5-(2-oxo-6-phenyl-1,2-dihydroindol-3-ylidenemethyl)-1H-pyrrole-2-carboxylic acid (3-pyrrolidin-1-ylpropyl)amide]
10 µM | 34.7 µM | 66.9 µM | 16 µM | COc1ccc2c(c1)NC(=O)/C2=C\c1[nH]c(C(=O)NCCCN2CCCC2)c(C)c1C(=O)c1ccccc1 [Example 26, 4-Benzoyl-5-(6-methoxy-2-oxo-1,2-dihydroindol-3-ylidenemethyl)-3-methyl-1H-pyrrole-2-carboxylic acid (3-pyrrolidin-1-ylpropyl)amide]
3.91 µM | 26.5 µM | > 100 µM | – | COc1ccc2c(c1)/C(=C/c1[nH]c(C(=O)NCCCN3CCCC3)c(C)c1C(=O)c1ccccc1)C(=O)N2 [Example 27, 4-Benzoyl-5-(5-methoxy-2-oxo-1,2-dihydroindol-3-ylidenemethyl)-3-methyl-1H-pyrrole-2-carboxylic acid (3-pyrrolidin-1-ylpropyl)amide]
2.67 µM | 53.7 µM | 71.3 µM | 4.5 µM | Cc1c(C(=O)NCCCN2CCCC2)[nH]c(/C=C2\C(=O)Nc3ccc(F)cc32)c1C(=O)c1ccccc1 [Example 28, 4-Benzoyl-5-(5-fluoro-2-oxo-1,2-dihydroindol-3-ylidenemethyl)-3-methyl-1H-pyrrole-2-carboxylic acid (3-pyrrolidin-1-ylpropyl)amide]
3.98 µM | 26.7 µM | > 100 µM | 10.1 µM | CCN(CC)CCCNC(=O)c1[nH]c(/C=C2\C(=O)Nc3ccc(Br)cc32)c(C(C)=O)c1C [Example 29, 4-Acetyl-5-(5-bromo-2-oxo-1,2-dihydroindol-3-ylidenemethyl)-3-methyl-1H-pyrrole-2-carboxylic acid (3-diethylaminopropyl)amide]
4.1 µM | 18.7 µM | > 100 µM | 9.4 µM | CC(=O)c1c(/C=C2\C(=O)Nc3ccc(Br)cc32)[nH]c(C(=O)NCCCN2CCCC2)c1C [Example 30, 4-Acetyl-5-(5-bromo-2-oxo-1,2-dihydroindol-3-ylidenemethyl)-3-methyl-1H-pyrrole-2-carboxylic acid (3-pyrrolidin-1-ylpropyl)amide]
47.2 µM | 9.83 µM | – | – | CC(=O)c1c(/C=C2\C(=O)Nc3ccc(Br)cc32)[nH]c(C(=O)NCCCN2CCOCC2)c1C [Example 31, 4-Acetyl-5-(5-bromo-2-oxo-1,2-dihydroindol-3-ylidenemethyl)-3-methyl-1H-pyrrole-2-carboxylic acid (3-morpholin-4-ylpropyl)amide]
> 100 µM | > 100 µM | 5.94 µM | 45.7 µM | CC(=O)c1c(/C=C2\C(=O)Nc3ccc(Br)cc32)[nH]c(C(=O)NCCCO)c1C [Example 32, 4-Acetyl-5-(5-bromo-2-oxo-1,2-dihydroindol-3-ylidenemethyl)-3-methyl-1H-pyrrole-2-carboxylic acid (3-hydroxy-propyl)amide]
> 100 µM | > 100 µM | > 100 µM | > 50 µM | CC(=O)c1c(/C=C2\C(=O)Nc3ccc(Br)cc32)[nH]c(C(=O)NCCN2CCOCC2)c1C [Example 34, 4-Acetyl-5-(5-bromo-2-oxo-1,2-dihydroindol-3-ylidenemethyl)-3-methyl-1H-pyrrole-2-carboxylic acid (2-morpholin-4-yl-ethyl)amide]
54.1 µM | 80.4 µM | > 100 µM | > 20 µM | CC(=O)c1c(/C=C2\C(=O)Nc3ccc(Br)cc32)[nH]c(C(=O)NCCN2CCCC2)c1C [Example 35, 4-Acetyl-5-(5-bromo-2-oxo-1,2-dihydroindol-3-ylidenemethyl)-3-methyl-1H-pyrrole-2-carboxylic acid (2-pyrrolidin-1-yl-ethyl)amide]
> 100 µM | > 100 µM | > 100 µM | > 20 µM | CC(=O)c1c(/C=C2\C(=O)Nc3ccc(Br)cc32)[nH]c(C(=O)NCCc2ccc(O)cc2)c1C [Example 36, 4-Acetyl-5-(5-bromo-2-oxo-1,2-dihydroindol-3-ylidenemethyl)-3-methyl-1H-pyrrole-2-carboxylic acid [2-(4-hydroxy-phenyl)-ethyl]amide]
6.27 µM | 6.52 µM | 7.9 µM | 4.5 µM | CC(C)c1[nH]c(/C=C2\C(=O)Nc3ccc(Br)cc32)c(-c2ccccc2)c1C(=O)NCCCN1CCN(C)CC1 [Example 40, 5-(5-Bromo-2-oxo-1,2-dihydroindol-3-ylidenemethyl)-2-isopropyl-4-phenyl-1H-pyrrole-3-carboxylic acid [3-(4-methyl-piperazin-1-yl)-propyl]amide]
– | – | 21.1 µM | – | Cc1[nH]c(/C=C2\C(=O)Nc3ccc(-c4ccccc4)cc32)c(C)c1C(=O)NCCCn1ccnc1 [Example 58, 2,4-Dimethyl-5-(2-oxo-5-phenyl-1,2-dihydroindol-3-ylidenemethyl)-1H-pyrrole-3-carboxylic acid (3-imidazol-1-ylpropyl)amide]
– | – | 8.32 µM | 8 µM | CCN(CC)CCNC(=O)c1c(C)[nH]c(/C=C2\C(=O)Nc3cc(-c4cc(Cl)cc(Cl)c4)ccc32)c1C [Example 62, 5-[6-(3,5-Dichloro-phenyl)-2-oxo-1,2-dihydroindol-3-ylidenemethyl]-2,4-dimethyl-1H-pyrrole-3-carboxylic acid (2-diethylaminoethyl)amide]
– | 8.59 µM | – | 0.21 µM | CCN(CC)CCNC(=O)c1c(C)[nH]c(/C=C2\C(=O)Nc3cc(-c4cccnc4)ccc32)c1C [Example 63, 2,4-Dimethyl-5-(2-oxo-6-pyridin-3-yl-1,2-dihydroindol-3-ylidenemethyl)-1H-pyrrole-3-carboxylic acid (2-diethylaminoethyl)amide]
9.91 µM | – | 22.5 µM | 15.2 µM | CCN(CC)CCNC(=O)c1c(C(C)C)[nH]c(/C=C2\C(=O)Nc3ccc(Br)cc32)c1C(C)C [Example 71, 5-(5-Bromo-2-oxo-1,2-dihydroindol-3-ylidenemethyl)-2,4-diisopropyl-1H-pyrrole-3-carboxylic acid (2-diethylaminoethyl)amide]
